This assay concerns the target T1, human PD-1 (Jurkat-PD-1 cells) / PE-labeled human PD-L1-Ig (Homo sapiens, UniProt Q15116).
T1 construct: expressed in transfected cells; host or cells: Jurkat cell line over-expressing human PD-1
In words: Jurkat-PD-1 Cell Binding High-Content Screening Assay (CBA); Jurkat hPD1-PDL1 assay. The conditions noted are these: Jurkat cell line over-expressing human PD-1; PE-labeled PD-L1-Ig 20 nM final; compound incubated 2 hours at 37° C.; read-out: Jurkat HPD1-PDL1 IC50. A digest of the protocol: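 Read-out is high-content imaging of PE fluorescence on PD-1-over-expressing Jurkat cells. Cells are first exposed to compound for 2 hours at 37° C in serum-containing DMEM, after which PE-labeled PD-L1-Ig is added at 20 nM final.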

Positions of bridges follow the written chain, without caps; N, C: chain ends. Non-standard residues stand in square brackets, D forms with d. Residues, ends and D or L forms follow the SMILES beside them. ξ: configuration not given here. *: point of attachment. Phe(3-CF3) = N[C@@H](Cc1cccc(C(F)(F)F)c1)C(=O)O; Phe(4-COOH) = N[C@@H](Cc1ccc(C(=O)O)cc1)C(=O)O; Bip = N[C@@H](Cc1ccc(-c2ccccc2)cc1)C(=O)O; Phe(3-Cl) = N[C@@H](Cc1cccc(Cl)c1)C(=O)O; Phe(3-Me) = Cc1cccc(C[C@H](N)C(=O)O)c1; NMeF = CN[C@@H](Cc1ccccc1)C(=O)O; Cha = N[C@@H](CC1CCCCC1)C(=O)O; Cit = NC(=O)NCCC[C@H](N)C(=O)O; dDab = NCC[C@@H](N)C(=O)O; Carboxymethyl = O=C(O)C*; NMeA = CN[C@@H](C)C(=O)O; Orn = NCCC[C@H](N)C(=O)O; Dab = NCC[C@H](N)C(=O)O; ξV = CC(C)C(N)C(=O)O; ξS = NC(CO)C(=O)O; Sar = CNCC(=O)O

This is an account of results in US20240360178A1, “MACROCYCLIC IMMUNOMODULATORS” (Bristol-Myers Squibb Company, priority 2021, published 2024).

The term IC50 denotes the point on the concentration scale where inhibition reaches its midpoint.

T1 sequence (Q15116 25-288): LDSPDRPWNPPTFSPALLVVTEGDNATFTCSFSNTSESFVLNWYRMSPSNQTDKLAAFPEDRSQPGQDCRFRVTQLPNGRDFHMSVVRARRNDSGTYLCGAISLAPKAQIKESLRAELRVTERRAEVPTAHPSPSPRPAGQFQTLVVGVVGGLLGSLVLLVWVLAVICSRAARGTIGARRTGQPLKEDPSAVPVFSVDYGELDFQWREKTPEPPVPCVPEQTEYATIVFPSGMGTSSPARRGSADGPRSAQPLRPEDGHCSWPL

Consider `CC(C)C[C@@H]1NC(=O)[C@H](Cc2c[nH]c3ccccc23)NC(=O)[C@H](CC(=O)O)NC(=O)[C@H](Cc2ccc(O)cc2)NC(=O)[C@H](Cc2ccccc2)NC(=O)CSC[C@@H](C(=O)N[C@@H](C)C(N)=O)NC(=O)[C@H](CO)NC(=O)[C@H](C(C)C)NC(=O)[C@H](CC(C)C)NC(=O)[C@H](CCCCN)NC(=O)CN(C)C(=O)[C@H](C)N(C)C(=O)[C@H](CCC(=O)O)NC(=O)[C@H](Cc2ccc(-c3ccccc3)cc2)NC1=O` [Example 1134] ({CH2CO}-FYDWL[Bip]E[NMeA][Sar]KLVSCA-NH2; thioether N-14), for which the half-maximal inhibitory concentration (IC50) is 540 nM.
The figure for `CC(C)C[C@@H]1NC(=O)[C@H](C)NC(=O)[C@H](Cc2ccccc2)N(C)C(=O)[C@H](C)N(C)C(=O)[C@H](CCCNC(=N)N)NC(=O)[C@H](Cc2ccc(-c3ccccc3)cc2)NC(=O)[C@H](C(C)C)NC(=O)[C@H](Cc2c[nH]c3ccccc23)NC(=O)[C@H](CC(=O)O)NC(=O)[C@H](Cc2ccc(O)cc2)NC(=O)[C@H](Cc2ccccc2)NC(=O)CSC[C@@H](C(=O)NCC(N)=O)NC(=O)[C@H](CO)NC(=O)[C@H](C(C)C)NC1=O` [Example 1209] ({CH2CO}-FYDWV[Bip]R[NMeA][NMeF]ALVSCG-NH2; thioether N-14) is 780 nM; for `CC(C)C[C@@H]1NC(=O)[C@H](CCCNC(=N)N)NC(=O)[C@H](Cc2ccccc2)N(C)C(=O)[C@H](C)N(C)C(=O)[C@H](CCCNC(=N)N)NC(=O)[C@H](Cc2ccc(-c3ccccc3)cc2)NC(=O)[C@H](C(C)C)NC(=O)[C@H](Cc2cccc(Cl)c2)NC(=O)[C@H](CC(=O)O)NC(=O)[C@H](Cc2ccc(O)cc2)NC(=O)[C@H](Cc2ccccc2)NC(=O)CSC[C@@H](C(=O)NCC(N)=O)NC(=O)[C@H](CO)NC(=O)[C@H](C(C)C)NC1=O` [Example 1241] ({CH2CO}-FYD[Phe(3-Cl)]V[Bip]R[NMeA][NMeF]RLVSCG-NH2; thioether N-14) it is 270 nM.
The figure for `CC(C)C[C@@H]1NC(=O)[C@H](CCCNC(=N)N)NC(=O)[C@H](Cc2ccccc2)N(C)C(=O)[C@H](C)N(C)C(=O)[C@H](CCCN)NC(=O)[C@H](Cc2ccc(-c3ccccc3)cc2)NC(=O)[C@H](C(C)C)NC(=O)[C@H](Cc2c[nH]c3ccccc23)NC(=O)[C@H](CC(=O)O)NC(=O)[C@H](Cc2ccc(O)cc2)NC(=O)[C@H](CC(N)=O)NC(=O)CSC[C@@H](C(=O)N[C@@H](C)C(N)=O)NC(=O)[C@H]([C@@H](C)O)NC(=O)[C@H](C(C)C)NC1=O` [Example 1347] ({CH2CO}-NYDWV[Bip][Orn][NMeA][NMeF]RLVTCA-NH2; thioether N-14) is 160 nM.
The result for `CC(C)C[C@@H]1NC(=O)[C@H](Cc2c[nH]c3ccccc23)NC(=O)[C@H](CC(=O)O)NC(=O)[C@H](Cc2ccc(O)cc2)NC(=O)[C@H](Cc2ccccc2)NC(=O)CSC[C@@H](C(=O)N[C@@H](C)C(N)=O)NC(=O)C(CO)NC(=O)[C@H](C(C)C)NC(=O)[C@H](CC(C)C)NC(=O)[C@H](CCN)NC(=O)[C@H]2CCCN2C(=O)[C@H](CCN)NC(=O)[C@H](C(C)C)NC(=O)[C@H](Cc2ccc(-c3ccccc3)cc2)NC1=O` (stereo partly drawn) [Example 1415] ({CH2CO}-FYDWL[Bip]V[Dab][dP][Dab]LV[ξS]CA-NH2; thioether N-14) reads 80 nM; that for `CC(C)C[C@@H]1NC(=O)[C@H](CCCNC(=N)N)NC(=O)[C@H](Cc2ccccc2)N(C)C(=O)[C@H](C)N(C)C(=O)[C@H](CCC(=O)O)NC(=O)[C@H](Cc2ccc(-c3ccccc3)cc2)NC(=O)[C@H](C(C)C)NC(=O)[C@H](Cc2c[nH]c3ccccc23)NC(=O)[C@H](CC(=O)O)NC(=O)[C@H](Cc2ccc(O)cc2)NC(=O)[C@H](CC(N)=O)NC(=O)CSC[C@@H](C(=O)N[C@@H](C)C(N)=O)NC(=O)[C@H]([C@@H](C)O)NC(=O)[C@H](C(C)C)NC1=O` [Example 1379] ({CH2CO}-NYDWV[Bip]E[NMeA][NMeF]RLVTCA-NH2; thioether N-14), 40 nM; that for `CC(C)C[C@@H]1NC(=O)[C@H](CCCNC(=N)N)NC(=O)[C@H](Cc2ccccc2)N(C)C(=O)[C@H](C)N(C)C(=O)[C@H](C(C)C)NC(=O)[C@H](Cc2ccc(-c3ccccc3)cc2)NC(=O)[C@H](C(C)C)NC(=O)[C@H](Cc2c[nH]c3ccccc23)NC(=O)[C@H](CC(=O)O)NC(=O)[C@H](Cc2ccc(O)cc2)NC(=O)[C@H](Cc2ccccc2)NC(=O)CSC[C@@H](C(=O)NCC(N)=O)NC(=O)[C@H](CO)NC(=O)[C@H](C(C)C)NC1=O` [Example 1206] ({CH2CO}-FYDWV[Bip]V[NMeA][NMeF]RLVSCG-NH2; thioether N-14), 450 nM.
On to `CC(C)C[C@@H]1NC(=O)[C@H](CCCNC(=N)N)NC(=O)[C@H](Cc2ccccc2)N(C)C(=O)[C@H](C)N(C)C(=O)[C@H](CCCNC(N)=O)NC(=O)[C@H](Cc2ccc(-c3ccccc3)cc2)NC(=O)[C@H](C(C)C)NC(=O)[C@H](Cc2c[nH]c3ccccc23)NC(=O)[C@H](CC(=O)O)NC(=O)[C@H](Cc2ccc(O)cc2)NC(=O)[C@H](Cc2ccccc2)NC(=O)CSC[C@@H](C(=O)NCC(N)=O)NC(=O)[C@H](CO)NC(=O)[C@H](C(C)C)NC1=O` [Example 1245] ({CH2CO}-FYDWV[Bip][Cit][NMeA][NMeF]RLVSCG-NH2; thioether N-14), for which the IC50 amounted to 110 nM.
The figure for `COc1ccc(C[C@@H]2NC(=O)CSC[C@@H](C(=O)NCC(N)=O)NC(=O)[C@H](CO)NC(=O)[C@H](C(C)C)NC(=O)[C@H](CC(C)C)NC(=O)[C@H](CC(N)=O)NC(=O)CN(C)C(=O)[C@H](C)N(C)C(=O)[C@H](C(C)C)NC(=O)[C@H](Cc3ccc(-c4ccccc4)cc3)NC(=O)[C@H](CC(C)C)NC(=O)[C@H](Cc3c[nH]c4ccccc34)NC(=O)[C@H](CC(=O)O)NC(=O)[C@H](Cc3ccc(O)cc3)NC2=O)cc1` [Example 1138] ({CH2CO}-Y(Me)YDWL[Bip]V[NMeA][Sar]NLVSCG-NH2; thioether N-14) is 570 nM.
The figure for `CC(C)C[C@@H]1NC(=O)[C@H](Cc2c[nH]c3ccccc23)NC(=O)[C@H](CC(=O)O)NC(=O)[C@H](Cc2ccc(O)cc2)NC(=O)[C@H](Cc2ccccc2)NC(=O)CSC[C@@H](C(=O)N[C@@H](C)C(N)=O)NC(=O)[C@H](CO)NC(=O)[C@H](C(C)C)NC(=O)[C@H](CC(C)C)NC(=O)[C@H](CC(N)=O)NC(=O)CN(C)C(=O)[C@@H](CCN)NC(=O)[C@H](C(C)C)NC(=O)[C@H](Cc2ccc(-c3ccccc3)cc2)NC1=O` [Example 1196] ({CH2CO}-FYDWL[Bip]V[dDab][Sar]NLVSCA-NH2; thioether N-14) is 950 nM.
The result for `CC(C)C[C@@H]1NC(=O)[C@H](CCN)NC(=O)[C@H](Cc2ccccc2)N(C)C(=O)[C@H](C)N(C)C(=O)[C@H](CCCNC(N)=O)NC(=O)[C@H](Cc2ccc(-c3ccccc3)cc2)NC(=O)[C@H](C(C)C)NC(=O)[C@H](Cc2cccc(C(F)(F)F)c2)NC(=O)[C@H](CC(=O)O)NC(=O)[C@H](Cc2ccc(O)cc2)NC(=O)[C@H](CC(N)=O)NC(=O)CSC[C@@H](C(=O)N[C@@H](C)C(N)=O)NC(=O)[C@H]([C@@H](C)O)NC(=O)[C@H](C(C)C)NC1=O` [Example 1376] ({CH2CO}-NYD[Phe(3-CF3)]V[Bip][Cit][NMeA][NMeF][Dab]LVTCA-NH2; thioether N-14) reads 70 nM.
For the molecule `CC(C)C[C@@H]1NC(=O)[C@H](CCCNC(=N)N)NC(=O)[C@H](Cc2ccccc2)N(C)C(=O)[C@H](C)N(C)C(=O)[C@H](CCCNC(=N)N)NC(=O)[C@H](Cc2ccc(-c3ccccc3)cc2)NC(=O)[C@H](C(C)C)NC(=O)[C@H](Cc2c[nH]c3ccccc23)NC(=O)[C@H](CC(=O)O)NC(=O)[C@H](Cc2ccc(O)cc2)NC(=O)[C@H](Cc2ccccc2)NC(=O)CSC[C@@H](C(=O)N[C@H](C(N)=O)C(C)C)NC(=O)[C@H](CO)NC(=O)[C@H](C(C)C)NC1=O` [Example 1167] ({CH2CO}-FYDWV[Bip]R[NMeA][NMeF]RLVSCV-NH2; thioether N-14), the IC50 was 910 nM.
The figure for `CC(C)C[C@@H]1NC(=O)[C@H](CC(N)=O)NC(=O)CN(C)C(=O)[C@H](C)N(C)C(=O)[C@H](C(C)C)NC(=O)[C@H](Cc2ccc(-c3ccccc3)cc2)NC(=O)[C@H](C(C)C)NC(=O)[C@H](Cc2c[nH]c3ccccc23)NC(=O)[C@H](CC(=O)O)NC(=O)[C@H](Cc2ccc(O)cc2)NC(=O)[C@H](Cc2ccccc2)NC(=O)CSC[C@@H](C(=O)NCC(N)=O)NC(=O)[C@H](CO)NC(=O)[C@H](C(C)C)NC1=O` [Example 1202] ({CH2CO}-FYDWV[Bip]V[NMeA][Sar]NLVSCG-NH2; thioether N-14) is 80 nM.
On to `CC(C)C[C@@H]1NC(=O)CSC[C@@H](C(=O)NCC(N)=O)NC(=O)[C@H](CO)NC(=O)[C@H](C(C)C)NC(=O)[C@H](CC(C)C)NC(=O)[C@H](CCCNC(=N)N)NC(=O)[C@H](Cc2ccccc2)N(C)C(=O)[C@H](C)N(C)C(=O)[C@H](CCCNC(=N)N)NC(=O)[C@H](Cc2ccc(-c3ccccc3)cc2)NC(=O)[C@H](C(C)C)NC(=O)[C@H](Cc2c[nH]c3ccccc23)NC(=O)[C@H](CC(=O)O)NC(=O)[C@H](Cc2ccc(O)cc2)NC1=O` [Example 1077] ({CH2CO}-LYDWV[Bip]R[NMeA][NMeF]RLVSCG-NH2; thioether N-14), for which the IC50 was found to be 210 nM.
The figure for `Cc1cccc(C[C@@H]2NC(=O)[C@H](CC(=O)O)NC(=O)[C@H](Cc3ccc(C(=O)O)cc3)NC(=O)[C@H](Cc3ccc(OCC(=O)O)cc3)NC(=O)CSC[C@@H](C(=O)N[C@@H](C)C(N)=O)NC(=O)[C@H]([C@@H](C)O)NC(=O)[C@H](C(C)C)NC(=O)[C@H](CC3CCCCC3)NC(=O)[C@H](CCN)NC(=O)[C@H](Cc3ccccc3)N(C)C(=O)[C@H](CCCN)NC(=O)[C@H](CCC(=O)O)NC(=O)[C@H](Cc3ccc(-c4ccccc4)cc3)NC(=O)C(C(C)C)NC2=O)c1` (stereo partly drawn) [Example 1449] ({CH2CO}-Y(Carboxymethyl)[Phe(4-COOH)]D[Phe(3-Me)][ξV][Bip]E[Orn][NMeF][Dab][Cha]VTCA-NH2; thioether N-14) is 30 nM.
